From US12649730B2 (MITOIMMUNE THERAPEUTICS INC., priority 2021, dated 2026)
Where two headings read alike, the source gives them in different places.

Assays:
[1] = Solubility screening of the compound of Chemical Formula 1 in various solvents (supernatant, HPLC); format: physicochemical
[2] = Solubility equilibrium in DMSO/EtOH mixed solvent by temperature; format: physicochemical; conditions: organic solvent or mixture, thermodynamic from solid
Method: These were respectively heated and held at 50° C., 60° C., and 75° C. while being agitated for 6 hours. […] Accordingly, it was decided that a super-saturation method would be considered.

H9C2 cells [3] = experiment: Cytoplasmic calcium concentration under tBHP treatment (FLIPR Calcium 6 assay kit); format: cell-based; conditions: 150 μM tBHP
Method: To examine the calcium concentration maintenance effect in cardiomyocytes, H9C2 cells were placed in a 96 well plate at 1.5×10^4 cells/well and cultured for 24 hours. To measure cytoplasmic calcium concentration, a FLIPR Calcium 6 assay kit (Molecular devices; #R8190) was used. Following the manufacturer's experimental method, the cells were treated with probenecid and calcium-specific dye. […] For stimulation of cells, the cells were treated with tBHP to a final concentration of 150 μM, then cytoplasmic calcium concentration was measured every 30 seconds in real time. […] The ΔF/F (Max-Min) value of the vertical axis is the difference between the maximum and minimum values for the fluorescence value of calcium-specific dye after tBHP treatment. The ΔF/F value increases with cytoplasmic calcium concentration. The horizontal axis indicates the concentration of Chemical Formula 1, and V.C. is a control only treated with the vehicle, where cytoplasmic calcium concentration increases most when treated with tBHP.

H9C2 cells [4] = experiment: Mitochondrial calcium imaging with Rhod-2 under tBHP, thapsigargin and CaCl2; format: cell-based; conditions: 10 μM compound, 150 μM tBHP, 1.2 μM thapsigargin, 2 mM CaCl2
Method: In addition, in order to confirm the effect of inhibiting the increase in mitochondrial calcium concentration in cardiomyocytes by cell imaging, H9C2 cells were seeded in a 35 mm culture dish at 1.5×10^4 cells and cultured for 24 hours. Imaging of calcium concentration in mitochondria was performed using Rhod-2. The cells were treated with Rhod-2, MitoTracker Green (200 nM), and Hoechst33342 (2 drops/ml) for 50 minutes, washed twice with KRB buffer, and incubated for another 30 minutes with buffer solution. The cells were treated with the compound of Formula 1 for 0.25 hours to final concentration of 10 μM, and treated with tBHP for 30 minutes to final concentration of 150 μM. Then, the cells were treated with 1.2 μM thapsigargin for 10 minutes and 2 mM of CaCl2, and the fluorescence developed in mitochondrial calcium of the living cells was observed through imaging.

H9C2 cells [5] = experiment: Intra-mitochondrial reactive oxygen species, DHR-123 fluorometry under tBHP; format: cell-based; conditions: 0.0001 to 30 μM compound, 400 μM tBHP
Method: To examine the intra-mitochondrial reactive oxygen species removal effect in cardiomyocytes, H9C2 cells were placed in a 96 well plate at 1.5×10^4 cells/well and cultured for 24 hours. To measure mitochondria-specific reactive oxygen species, fluorometry using dihydrorhodamine-123 (DHR-123) was used.

H9C2 cells [6] = experiment: Intra-mitochondrial superoxide imaging with MitoSOX under tBHP; format: cell-based; conditions: 1 μM compound, 50 μM tBHP 1 hour
Method: To measure the superoxides among the reactive oxygen species occurring in mitochondria, intracellular fluorescent imaging was used by using MitoSOX™ (Red Mitochondrial Superoxide Indicator). […] The cell culture medium was replaced with a medium without phenol red, then the cells were treated for 30 minutes with HOECHST (0.5 drop/ml), MitoTracker Green (150 nM) and MitoSOX (2 μM) before observing intracellular fluorescence through imaging.

RAW264.7 cells = experiment: Peroxynitrite removal in macrophages under SIN-1 (DAX-J2 PON Green); format: cell-based; conditions: RAW264.7 macrophages, 10 μM and 30 μM, 200 μM SIN-1
Method: (§1) To confirm the effect of removing peroxynitrite produced from macrophages, RAW264.7 cells were seeded in a 96 well plate at 1×10^5 cells/well and cultured for 24 hours. Peroxynitrite was measured by fluorescence measurement using DAX-J2™ PON Green dye. […] Thereafter, SIN-1 was treated to a final concentration of 200 μM, and the amount of peroxynitrite generated in the cell every 2 minutes in real time was measured through fluorescence intensity. To confirm the effect of removing peroxynitrite from astrocytes, C8-D1A cells were seeded in a 96 well plate at 6×10^4 cells/well and cultured for 24 hours, and the experiment was performed under the same conditions. […] The horizontal axis represents the concentrations of the compound of Formula 1 and ascorbic acid, and V.C is the control treated with only the vehicle, and the concentration of intracellular peroxynitrite increases the most during SIN-1 treatment. The vertical axis represents the total amount of peroxynitrite generated 1 hour after SIN-1 treatment.

C8-D1A cells = experiment: Peroxynitrite removal in astrocytes under SIN-1 (DAX-J2 PON Green); format: cell-based; conditions: 10 μM and 30 μM, 200 μM SIN-1
Method: as §1

[7] = tested on: MPTP-induced Parkinson's disease mouse model; experiment: Pole test in MPTP-induced Parkinson's disease mouse model; format: in vivo, C57BL/6 mice; conditions: intraperitoneally once a day, low, medium and high doses, 6 days from 2 days after MPTP
[8] = tested on: MPTP-induced Parkinson's disease mouse model; experiment: Grip strength test in MPTP-induced Parkinson's disease mouse model; format: in vivo, C57BL/6 mice; conditions: intraperitoneally once a day, low, medium and high doses, 6 days from 2 days after MPTP
[9] = tested on: MPTP-induced Parkinson's disease mouse model; experiment: TH (Tyrosine hydroxylase) staining of brain tissue in MPTP-induced Parkinson's disease mouse model; format: in vivo, C57BL/6 mice; conditions: medium and high doses
Method: Behavioral disorders were induced by administering 20 mg/kg MPTP to C57BL/6 mice a total of 4 times at 2 hour intervals. […] On the 6th day after administration of the compound of Formula 1, mice were sacrificed, frozen sections of brain tissue were prepared, and TH (Tyrosine hydroxylase) staining was performed.

[10] = intraperitoneally once a day, low, 6 days

In the case of `O=S1(=O)CCN(Cc2cc(NC3CCOCC3)c3[nH]c(-c4ccccc4)cc3c2)CC1` [compound of Chemical Formula 1, 5-[(1,1-dioxido-4-thiomorpholinyl)methyl]-2-phenyl-N-(tetrahydro-2H-pyran-4-yl)-1H-indol-7-amine], the Solubility ([1]; Heptane, 25° C.) is reported as “<LOQ”, the Solubility ([1]; Heptane, 50° C.) is reported as “<LOQ” and the Solubility ([1]; MTBE, 25° C.) is reported as 0.06 mg/mL. The Solubility ([1]; MTBE, 50° C.) was 0.07 mg/mL, the Solubility ([1]; THF, 25° C.) was 17.40 mg/mL and the Solubility ([1]; in most solvents (Table 3)) was “very low”. For the same compound, the Solubility ([1]; organic solvent or mixture, thermodynamic from solid, in DMF, NMP and DMSO (Table 3), read-out: Solubility) was at least 40 mg/mL, the solubility at 6 h ([2]; DMSO/EtOH 1:4 mixed solvent, DMSO/EtOH 1:4, 50° C.) was 15 mg/mL and the solubility at 6 h ([2]; DMSO/EtOH 1:4 mixed solvent, DMSO/EtOH 1:4, 60° C.) was 19 mg/mL. For the same compound, the solubility at 6 h ([2]; DMSO/EtOH 1:4 mixed solvent, DMSO/EtOH 1:4, 75° C.) was 31 mg/mL, the solubility at 6 h ([2]; DMSO/EtOH 1:5 mixed solvent, DMSO/EtOH 1:5, 50° C.) was 12 mg/mL and the solubility at 6 h ([2]; DMSO/EtOH 1:5 mixed solvent, DMSO/EtOH 1:5, 60° C.) was 14 mg/mL. For the same compound, the solubility at 6 h ([2]; DMSO/EtOH 1:5 mixed solvent, DMSO/EtOH 1:5, 75° C.) was 19 mg/mL, the “Cytoplasmic calcium concentration (ΔF/F Max-Min) after tBHP” value (H9C2 cells [3]; 0.01 μM compound) was “reduced” and the “Cytoplasmic calcium concentration (ΔF/F Max-Min) after tBHP” value (H9C2 cells [3]; 0.1 μM compound) was “normal level of cytoplasmic calcium concentration”. For the same compound, the “Mitochondrial calcium concentration (Rhod-2 fluorescence)” value (H9C2 cells [4]) was “effectively inhibited the increase in the calcium concentration in mitochondria”, the “Total intra-mitochondrial reactive oxygen species over 2 hours after tBHP (DHR-123)” value (H9C2 cells [5]) was “inhibit occurrence of reactive oxygen species in a concentration-dependent manner” and the “Intra-mitochondrial superoxide (MitoSOX fluorescence)” value (H9C2 cells [6]) was “effectively removes intra-mitochondrial reactive oxygen species including superoxides”. For the same compound, the “Peroxynitrite inhibition compared with positive control ascorbic acid” value (RAW264.7 cells) was “superior inhibitory effect than ascorbic acid”, the “Total peroxynitrite generated 1 hour after SIN-1 treatment” value (RAW264.7 cells) was “peroxynitrite generation was inhibited by treatment with the compound of Formula 1 in a concentration-dependent manner” and the “Peroxynitrite inhibition compared with positive control ascorbic acid” value (C8-D1A cells) was “superior inhibitory effect than ascorbic acid”. For the same compound, the “Total peroxynitrite generated 1 hour after SIN-1 treatment” value (C8-D1A cells) was “peroxynitrite generation was inhibited by treatment with the compound of Formula 1 in a concentration-dependent manner”, the “Pole test T-turn time” value [7] was “recovered in a concentration-dependent manner” and the “Pole test total time” value [7] was “recovered in a concentration-dependent manner”. For the same compound, the Grip force value [8] was “restored in a concentration-dependent manner”, the “TH level in the striatum” value [9, 10] was “recovered in a concentration-dependent manner” and the “TH level in the substantia nigra” value [9, 10] was “recovered in a concentration-dependent manner”. The “TH level in the striatum” value [9] was “significantly increased”.
